# Test results: US10124004B2, “Pyrido[3,4-d]pyrimidine derivative and pharmaceutically acceptable salt thereof” (Teijin Pharma Limited, priority 2015, dated 2018)
# Key:
# CDK4/cyclin D3 = molecular target: T1, CDK4/cyclin D3 (Homo sapiens, UniProt P11802); test: Human CDK4/cyclin D3 inhibitory activity (QS S Assist CDK4/Cyclin D3_FP Kit, IMAP fluorescence polarization); format: biochemical; conditions: Human CDK4/cyclin D3 inhibitory activity; read-out: CDK4 Activity symbol
# T1 construct: purchased Carna Biosciences, Inc. QS S Assist CDK4/Cyclin D3_FP Kit
# Procedure, shortened: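 Percent inhibition, relative to DMSO with and without enzyme, was curve-fitted to give IC50 from polarization (ex 485, em 535 nm). The 45-min room-temperature reaction used 12.5-25 ng/well enzyme, kit ATP/substrate/metal mix, and HEPES pH 7.4 buffer with Tween20 and DTT, followed by 30-min IMAP binding in the dark.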
# CDK2/cyclin A2 = molecular target: T2, CDK2/cyclin A2 (Homo sapiens, UniProt P24941); test: Human CDK2/cyclin A2 inhibitory activity (QS S Assist CDK2/Cyclin A2_FP Kit, IMAP fluorescence polarization); format: biochemical; conditions: Human CDK2/cyclin A2 inhibitory activity; read-out: CDK2 Activity symbol
# T2 construct: purchased Carna Biosciences, Inc. QS S Assist CDK2/Cyclin A2_FP Kit
# Procedure, shortened: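 Kinase activity read as fluorescence polarization (485/535 nm) after phosphorylated fluorescent substrate binds IMAP reagent (30 min, RT, dark). Enzyme (2.5 ng/well) reacted 60 min at RT with ATP/substrate/metal in HEPES pH 7.4 buffer with Tween 20 and DTT; no-enzyme wells define 0% activity; IC50 by curve fit.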
# T1 sequence (P11802 whole entry): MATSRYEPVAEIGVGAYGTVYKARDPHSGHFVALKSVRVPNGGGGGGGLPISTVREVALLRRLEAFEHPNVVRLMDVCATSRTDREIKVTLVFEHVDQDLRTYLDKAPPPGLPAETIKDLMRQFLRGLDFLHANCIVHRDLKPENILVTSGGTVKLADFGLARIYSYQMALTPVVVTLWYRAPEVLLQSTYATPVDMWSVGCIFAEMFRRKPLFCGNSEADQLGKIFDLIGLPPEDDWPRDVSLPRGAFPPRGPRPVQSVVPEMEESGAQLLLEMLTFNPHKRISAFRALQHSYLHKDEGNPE
# T1 sequence (P30281 whole entry partner): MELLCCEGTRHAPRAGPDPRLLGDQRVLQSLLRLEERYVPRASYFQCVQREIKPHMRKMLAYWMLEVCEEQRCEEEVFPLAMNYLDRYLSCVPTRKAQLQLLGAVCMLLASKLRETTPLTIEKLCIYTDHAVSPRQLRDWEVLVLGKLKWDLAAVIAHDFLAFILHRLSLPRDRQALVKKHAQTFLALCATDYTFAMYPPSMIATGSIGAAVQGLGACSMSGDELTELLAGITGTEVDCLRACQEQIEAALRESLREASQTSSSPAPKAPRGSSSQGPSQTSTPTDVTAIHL
IC50 (CDK4/cyclin D3),IC50 (CDK2/cyclin A2),Compound
< 10 nM,≥ 100 nM,CO[C@H](C)c1cc2cnc(Nc3ccc(N4CCN[C@@H](C)C4=O)cn3)nc2c(NC(C)C)n1 [Compound 463]
< 10 nM,≥ 100 nM,CO[C@H](C)c1cc2cnc(Nc3ccc(N4CC[C@@H](N)[C@@H](F)C4)cn3)nc2c(NC(C)C)n1 [Compound 466]
< 10 nM,≥ 100 nM,CO[C@H](C)c1cc2cnc(Nc3ccc(N4CC[C@H](N)[C@@H](F)C4)cn3)nc2c(NC(C)C)n1 [Compound 467]
< 10 nM,≥ 100 nM,CC(C)Nc1nc([C@@H](C)O)cc2cnc(Nc3ccc(OCCN(C)C)nn3)nc12 [Compound 474]
< 10 nM,≥ 100 nM,CC(C)Nc1nc([C@@H](C)O)cc2cnc(Nc3ccc(N4CCC(N(C)C)CC4)nn3)nc12 [Compound 491]
< 10 nM,10 to 100 nM,CO[C@H](C)c1cc2cnc(Nc3ccc(N4CCCNCC4=O)cn3)nc2c(NC(C)C)n1 [Compound 492]
< 10 nM,≥ 100 nM,CNC1CCN(c2ccc(Nc3ncc4cc([C@@H](C)O)nc(NC(C)C)c4n3)nn2)CC1 [Compound 497]
< 10 nM,10 to 100 nM,CO[C@H](C)c1cc2cnc(Nc3ccc(N4CCNCCC4=O)cn3)nc2c(NC(C)C)n1 [Compound 499]
< 10 nM,≥ 100 nM,CC(C)Nc1nc([C@@H](C)O)cc2cnc(Nc3ccc(N4CCN[C@@H](C)C4=O)cn3)nc12 [Compound 507]
< 10 nM,≥ 100 nM,CO[C@H](C)c1cc2cnc(Nc3ccc(CN4CCN(CCO)CC4)cn3)nc2c(NC(C)C)n1 [Compound 508]
< 10 nM,≥ 100 nM,CNCC(F)COc1ccc(Nc2ncc3cc([C@@H](C)OC)nc(NC(C)C)c3n2)nc1 (some centres unmarked) [Compound 509]
< 10 nM,≥ 100 nM,CC(C)Nc1nc([C@@H](C)O)cc2cnc(Nc3ccc(N4CCN(CCO)CC4)nn3)nc12 [Compound 510]
< 10 nM,10 to 100 nM,CO[C@H](C)c1cc2cnc(Nc3ccc(N4CC5(CNC5)CC4=O)cn3)nc2c(NC(C)C)n1 [Compound 511]
< 10 nM,≥ 100 nM,CNC1CC2(C1)CN(c1ccc(Nc3ncc4cc([C@@H](C)OC)nc(NC(C)C)c4n3)nc1)C2 [Compound 512]
< 10 nM,≥ 100 nM,CC(C)Nc1nc([C@@H](C)O)cc2cnc(Nc3ccc(CC(=O)N4CCNCC4)cn3)nc12 [Compound 519]
< 10 nM,10 to 100 nM,CC(C)Nc1nc([C@@H](C)O)cc2cnc(Nc3ccc(N4CCCNCC4=O)cn3)nc12 [Compound 521]
< 10 nM,10 to 100 nM,CC(C)Nc1nc([C@@H](C)O)cc2cnc(Nc3ccc(N4CCNCCC4=O)cn3)nc12 [Compound 522]
< 10 nM,≥ 100 nM,CC(C)Nc1nc([C@@H](C)O)cc2cnc(Nc3ccc(N4CC5(CC(O)C5)C4)nn3)nc12 [Compound 524]
< 10 nM,≥ 100 nM,CNCCCOc1ccc(Nc2ncc3cc([C@@H](C)OC)nc(NC(C)C)c3n2)nc1 [Compound 526]

IC50 (CDK4/cyclin D3),IC50 (CDK2/cyclin A2),Compound
< 10 nM,≥ 100 nM,CNCCOc1ccc(Nc2ncc3cc([C@@H](C)O)nc(NC(C)C)c3n2)nc1 [Compound 529]
< 10 nM,≥ 100 nM,CC(C)Nc1nc([C@@H](C)O)cc2cnc(Nc3ccc(N4CCN(C)CC4)nn3)nc12 [Compound 532]
< 10 nM,≥ 100 nM,CC(C)Nc1nc([C@@H](C)O)cc2cnc(Nc3ccc(CN4CCNC5(CC5)C4)cn3)nc12 [Compound 537]
< 10 nM,≥ 100 nM,CC(C)Nc1nc([C@@H](C)O)cc2cnc(Nc3ccc(CN4CCN(C)CC4)cn3)nc12 [Compound 548]
< 10 nM,≥ 100 nM,CC(C)Nc1nc([C@@H](C)O)cc2cnc(Nc3ccc(CN4CCC(C(C)(C)O)CC4)cn3)nc12 [Compound 549]
< 10 nM,≥ 100 nM,CC(C)Nc1nc([C@@H](C)O)cc2cnc(Nc3ccc(OCCN4CCNCC4=O)cn3)nc12 [Compound 550]
< 10 nM,≥ 100 nM,CO[C@H](C)c1cc2cnc(Nc3ccc(N4CCCCC(N)C4=O)cn3)nc2c(NC(C)C)n1 (some centres unmarked) [Compound 553]
< 10 nM,≥ 100 nM,CC(C)Nc1nc([C@@H](C)O)cc2cnc(Nc3ccc(N4CCCCC(N)C4=O)cn3)nc12 (some centres unmarked) [Compound 554]
< 10 nM,≥ 100 nM,CC(C)Nc1nc([C@@H](C)O)cc2cnc(Nc3ccc(CN4CCN(CCO)CC4)cn3)nc12 [Compound 555]
< 10 nM,10 to 100 nM,CO[C@H](C)c1cc2cnc(Nc3ccc(N4C[C@H]5CCN[C@H]5C4=O)cn3)nc2c(NC(C)C)n1 [Compound 556]
< 10 nM,≥ 100 nM,CO[C@H](C)c1cc2cnc(Nc3ccc(OCC(=O)N4CCNCC4)cn3)nc2c(NC(C)C)n1 [Compound 557]
< 10 nM,10 to 100 nM,CC(C)Nc1nc([C@@H](C)O)cc2cnc(Nc3ccc(N4C[C@H]5CCN[C@H]5C4=O)cn3)nc12 [Compound 558]
< 10 nM,≥ 100 nM,CC(C)Nc1nc([C@@H](C)O)cc2cnc(Nc3ccc(OCC(=O)N4CCNCC4)cn3)nc12 [Compound 559]
< 10 nM,≥ 100 nM,CO[C@H](C)c1cc2cnc(Nc3ccc(N4CCC(C)(N)CC4)nn3)nc2c(NC(C)C)n1 [Compound 560]
< 10 nM,≥ 100 nM,CC(C)Nc1nc([C@@H](C)O)cc2cnc(Nc3ccc(N4CCC(C)(N)CC4)nn3)nc12 [Compound 561]
< 10 nM,≥ 100 nM,CC(C)Nc1nc([C@@H](C)O)cc2cnc(Nc3ccc(N4CC5(CNC5)C4)nn3)nc12 [Compound 562]
< 10 nM,≥ 100 nM,CC(C)Nc1nc([C@@H](C)O)cc2cnc(Nc3ccc(O[C@H]4CCNC4)cn3)nc12 [Compound 566]
< 10 nM,≥ 100 nM,CC(C)Nc1nc([C@@H](C)O)cc2cnc(Nc3ccc(O[C@@H]4CCNC[C@H]4F)cn3)nc12 [Compound 567]
< 10 nM,≥ 100 nM,CC(C)Nc1nc([C@@H](C)O)cc2cnc(Nc3ccc(O[C@H]4CCNC[C@H]4F)cn3)nc12 [Compound 569]

IC50 (CDK4/cyclin D3),IC50 (CDK2/cyclin A2),Compound
< 10 nM,≥ 100 nM,CC(C)Nc1nc([C@@H](C)O)cc2cnc(Nc3ccc(O[C@@H]4CCNC4)cn3)nc12 [Compound 572]
< 10 nM,≥ 100 nM,CC(C)Nc1nc([C@@H](C)O)cc2cnc(Nc3ccc(N4CC5(CCN5)C4)nn3)nc12 [Compound 573]
< 10 nM,≥ 100 nM,CC(C)Nc1nc([C@@H](C)O)cc2cnc(Nc3ccc(N4CC5(CCNC5)C4)nn3)nc12 [Compound 574]
< 10 nM,≥ 100 nM,CC(C)Nc1nc([C@@H](C)O)cc2cnc(Nc3ccc(N4CC5(CCNCC5)C4)nn3)nc12 [Compound 575]
< 10 nM,≥ 100 nM,CC(C)Nc1nc([C@@H](C)O)cc2cnc(Nc3ccc(N4CC5(CC(N)C5)C4)nn3)nc12 [Compound 576]
< 10 nM,≥ 100 nM,CC(C)Nc1nc([C@@H](C)O)cc2cnc(Nc3ccc(OCC4CNC4)nn3)nc12 [Compound 579]
< 10 nM,≥ 100 nM,CC(C)Nc1nc([C@@H](C)O)cc2cnc(Nc3ccc(N4CCC(N)C4=O)cn3)nc12 (some centres unmarked) [Compound 583]
< 10 nM,≥ 100 nM,CC(C)Nc1nc([C@@H](C)O)cc2cnc(Nc3ccc(N4CCN(C(C)C)CC4=O)cn3)nc12 [Compound 584]
< 10 nM,≥ 100 nM,CC(C)Nc1nc([C@@H](C)O)cc2cnc(Nc3ccc(N4CCN(C(C)C)CC4)nn3)nc12 [Compound 585]
< 10 nM,≥ 100 nM,CC(C)CN1CCN(c2ccc(Nc3ncc4cc([C@@H](C)O)nc(NC(C)C)c4n3)nn2)CC1 [Compound 586]
< 10 nM,≥ 100 nM,CC(C)Nc1nc([C@@H](C)O)cc2cnc(Nc3ccc(N4CCN(C(C)CO)CC4)nn3)nc12 (some centres unmarked) [Compound 588]
< 10 nM,≥ 100 nM,C[C@@H](O)c1cc2cnc(Nc3ccc(N4CCC(O)CC4)nn3)nc2c(NC2CCC(C)(C)OC2)n1 (some centres unmarked) [Compound 589]
< 10 nM,≥ 100 nM,COC1CCC(Nc2nc([C@@H](C)O)cc3cnc(Nc4ccc(N5CCC(O)CC5)nn4)nc23)CC1 (some centres unmarked) [Compound 590]
< 10 nM,≥ 100 nM,CO[C@H](C)c1cc2cnc(Nc3ccc(N4CCCC(N)C4=O)cn3)nc2c(NC(C)C)n1 (some centres unmarked) [Compound 591]
< 10 nM,≥ 100 nM,CNCCOc1ccc(Nc2ncc3cc([C@@H](C)O)nc(NC4CCC(OC)CC4)c3n2)nc1 (some centres unmarked) [Compound 592]
< 10 nM,≥ 100 nM,CC(C)Nc1nc([C@@H](C)O)cc2cnc(Nc3ccc(N4CCCC(N)C4=O)cn3)nc12 (some centres unmarked) [Compound 593]
< 10 nM,≥ 100 nM,C[C@@H](O)c1cc2cnc(Nc3ccc(N4CCC(O)CC4)nn3)nc2c(N[C@H]2CCCOC2)n1 [Compound 595]
< 10 nM,≥ 100 nM,CC(C)CN1CCN(c2ccc(Nc3ncc4cc([C@@H](C)O)nc(NC(C)C)c4n3)nc2)C(=O)C1 [Compound 596]
< 10 nM,≥ 100 nM,CC(C)Nc1nc([C@@H](C)O)cc2cnc(Nc3ccc(N4CCN(CCO)CC4=O)cn3)nc12 [Compound 597]

Compound,IC50 (CDK4/cyclin D3),IC50 (CDK2/cyclin A2)
COC(C)c1cc2cnc(Nc3ccc(N4CC5CCC(C4)N5)cn3)nc2c(NC(C)C)n1 (centres unmarked) [Compound 501],< 10 nM,≥ 100 nM
